Measurements published in the NIST ThermoML archive (doi:10.1021/acs.jced.8b00554).

Assay: xn = mol fraction of the nth substance listed
Details: 343.15 K, Liquid, Vibrating tube method

CCCCCCCC [octane] + CCCO
Details | mass density [kg/m3]
100 kPa, x2 = 0.1631 | 665.21
100 kPa, x2 = 0.2111 | 667.28
100 kPa, x2 = 0.3158 | 672.81
100 kPa, x2 = 0.4411 | 681.54
100 kPa, x2 = 0.7301 | 709.96
100 kPa, x2 = 0.8823 | 734.38
1000 kPa, x2 = 0.8823 | 735.58
1010 kPa, x2 = 0.2111 | 668.8
1010 kPa, x2 = 0.4411 | 682.72
1010 kPa, x2 = 0.7301 | 711.47
1020 kPa, x2 = 0.1631 | 666.65
1020 kPa, x2 = 0.3158 | 674.29
2000 kPa, x2 = 0.1631 | 667.79
2010 kPa, x2 = 0.2111 | 669.99
2010 kPa, x2 = 0.4411 | 683.85
2010 kPa, x2 = 0.8823 | 736.66
2020 kPa, x2 = 0.3158 | 675.48
2020 kPa, x2 = 0.7301 | 712.6
3000 kPa, x2 = 0.2111 | 671.1
3000 kPa, x2 = 0.3158 | 676.61
3000 kPa, x2 = 0.4411 | 685.01
3010 kPa, x2 = 0.7301 | 713.72
3020 kPa, x2 = 0.1631 | 668.96
3020 kPa, x2 = 0.8823 | 737.74
4000 kPa, x2 = 0.3158 | 677.77
4000 kPa, x2 = 0.8823 | 738.79
4010 kPa, x2 = 0.4411 | 686.15
4010 kPa, x2 = 0.7301 | 714.83
4020 kPa, x2 = 0.1631 | 670.09
4020 kPa, x2 = 0.2111 | 672.25
5000 kPa, x2 = 0.7301 | 715.96
5010 kPa, x2 = 0.1631 | 671.22
5010 kPa, x2 = 0.4411 | 687.28
5010 kPa, x2 = 0.8823 | 739.88
5020 kPa, x2 = 0.2111 | 673.37
5020 kPa, x2 = 0.3158 | 678.9
6010 kPa, x2 = 0.1631 | 672.33
6010 kPa, x2 = 0.4411 | 688.39
6010 kPa, x2 = 0.8823 | 740.91
6020 kPa, x2 = 0.2111 | 674.49
6020 kPa, x2 = 0.3158 | 680.02
6020 kPa, x2 = 0.7301 | 717.05
7000 kPa, x2 = 0.8823 | 741.99
7010 kPa, x2 = 0.1631 | 673.46
7010 kPa, x2 = 0.2111 | 675.59
7010 kPa, x2 = 0.4411 | 689.51
7010 kPa, x2 = 0.7301 | 718.15
